Laboratory results published in patent US20090018162A1, “USE OF 6-(3-CHLORO-2-FLUOROBENZYL)-1-[(2S)-1-HYDROXY-3-METHYLBUTAN-2-YL]-7-METHOXY-4-OXO-1,4-DIHYDROQUINOLINE-3-CARBOXYLIC ACID OR SALT THEREOF FOR TREATING RETROVIRUS INFECTION” (priority 2006, published 2009).
Where two headings read alike, the source gives them in different places.

What was measured:
[1] = tested on: drug-resistant HIV-1 isolates; assay: Anti-HIV efficacy in fresh human PBMCs, drug-resistant HIV-1 isolates; settings: for IC50: Human immunodeficiency virus 1, PBMC, in Homo sapiens
[2] = MTS cytotoxicity in monocyte/macrophage cultures; type: cell-based; settings: human, fresh adherent monocyte/macrophage cultures, HIV-infected, macrophages, MTS, read-out: TC50
Description: Anti-HIV Efficacy Evaluation in Fresh Human Monocyte/Macrophage. Monocytes/macrophages were allowed to adhere to the interior 60 wells of a 96 well flat bottomed plate for 2 to 18 hours at 37° C., 5% CO2. Following 6 to 14 days in culture, the monocyte/macrophage cultures were washed 3 times to remove any non-adherent cells and serially diluted test compounds were added followed by the addition of a pre-titered amount of HIV. Cultures were washed a final time by media removal 24 hours post infection, fresh compound added and the cultures continued for an additional six days. […] At assay termination, virus replication was measured by collecting cell-free supernatant samples which were analyzed for HIV p24 antigen content using a commercially available p24 ELISA assay (Coulter). […] MTS staining for PBMC viability to measure cytotoxicity. […] The mitochondrial enzymes of metabolically active cells metabolize MTS to yield a soluble formazan product. This allows the rapid quantitative analysis of cell viability and compound cytotoxicity. […] At termination of the assay, 20 μL of MTS reagent was added per well. The microtiter plates were then incubated 4-6 hrs at 37° C. The incubation intervals were chosen based on empirically determined times for optimal dye reduction. […] Data analysis.

[3] = tested on: human PBMCs; settings: 7 days
[4] = tested on: HIV-2 CDC 310319; assay: microbe, parasite or virus in culture; settings: Human immunodeficiency virus 2, PBMC
[5] = tested on: HIV-1 clinical isolates
[6] = MTS staining for PBMC viability (cytotoxicity); settings: human
[7] = tested on: human PBMCs; assay: MTS staining for PBMC viability (cytotoxicity); settings: read-out: TC50, PBMCs, MTS
[8] = tested on: HIV-1 clinical isolates; assay: microbe, parasite or virus in culture; settings: Human immunodeficiency virus 1, PBMC
[9] = tested on: HIV-1 macrophage-tropic virus strains
[10] = tested on: HIV-1 macrophage-tropic virus strains; assay: microbe, parasite or virus in culture
[11] = tested on: recombinant HIV-1 clones (patient protease/RT sequences in HIV-1 NL4-3); assay: microbe, parasite or virus in culture; type: cell-based

SMILES: O=C1Nc2ccc(Cl)cc2[C@@](C#CC2CC2)(C(F)(F)F)O1 [Efavirenz, efavirenz]
- TI (TC50/IC50) ([1]; HIV-1 52-52 in PBMCs): >9901.0
- TI (TC50/IC50) ([1]; HIV-1 144-44 in PBMCs): >1666.7
- TI (TC50/IC50) ([1]; HIV-1 1002-60 in PBMCs): >4761.9
- TI (TC50/IC50) ([1]; HIV-1 1064-52 in PBMCs): >3448.3
- TI (TC50/IC50) ([1]; HIV-1 MDR 769 in PBMCs): >1851.9
- TI (TC50/IC50) ([1]; HIV-1 MDR 807 in PBMCs): >1408.5
- IC50 ([1]; HIV-1 52-52 (protease-inhibitor resistant) in PBMCs): < 0.0001 µM
- IC50 ([1]; against several viruses (e.g., MDR 1385, MDR 3761) in PBMCs): > 1 µM
- IC50 ([1]; multi-drug-resistant HIV-1 MDR 769 in PBMCs): 0.00054 µM
- IC50 ([1]; multi-drug-resistant HIV-1 MDR 807 in PBMCs): 0.00071 µM
- IC50 ([1]; multi-drug-resistant HIV-1 MDR 1385 in PBMCs): > 1 µM
- IC50 ([1]; multi-drug-resistant HIV-1 MDR 3761 in PBMCs): > 1 µM
- CC50 at 7 days ([2]; ADA assay): > 10 µM
- CC50 at 7 days ([2]; Ba-L assay): > 10 µM
- CC50 [3]: > 1 µM
- IC50 [4]: > 1 µM
- TI (TC50/IC50) ([5]; HIV-1 96USHIPS7 in PBMCs): >1538.5
- TI (TC50/IC50) ([5]; HIV-1 BFC01 in PBMCs): >1449.3
- TI (TC50/IC50) ([5]; HIV-1 BR/92/021 in PBMCs): >21.3
- TI (TC50/IC50) ([5]; HIV-1 BR/92/025 in PBMCs): >3333.3
- TI (TC50/IC50) ([5]; HIV-1 BR/93/017 in PBMCs): >1724.1
- TI (TC50/IC50) ([5]; HIV-1 BR/93/020 in PBMCs): >3125.0
- TI (TC50/IC50) ([5]; HIV-1 BR/93/022 in PBMCs): >1612.9
- TI (TC50/IC50) ([5]; HIV-1 CMU 02 in PBMCs): >549.5
- TI (TC50/IC50) ([5]; HIV-1 JV 1083 in PBMCs): >1538.5
- TI (TC50/IC50) ([5]; HIV-1 RW/92/016 in PBMCs): >1639.3
- TI (TC50/IC50) ([5]; HIV-1 UG/92/046 in PBMCs): >840.3
- CC50 at 7 days [6]: > 1 µM
- CC50 ([7]; 52-52 assay): > 1 µM
- CC50 ([7]; 144-44 assay): > 1 µM
- CC50 ([7]; 1002-60 assay): > 1 µM
- CC50 ([7]; 1064-52 assay): > 1 µM
- CC50 ([7]; BFC01 assay): > 1 µM
- CC50 ([7]; BR/92/021 assay): > 1 µM
- CC50 ([7]; BR/92/025 assay): > 1 µM
- CC50 ([7]; BR/93/017 assay): > 1 µM
- CC50 ([7]; BR/93/020 assay): > 1 µM
- CC50 ([7]; BR/93/022 assay): > 1 µM
- CC50 ([7]; CMU 02 assay): > 1 µM
- CC50 ([7]; HIV-2 CDC 310319 assay): > 1 µM
- CC50 ([7]; JV 1083 assay): > 1 µM
- CC50 ([7]; RW/92/016 assay): > 1 µM
- CC50 ([7]; UG/92/046 assay): > 1 µM
- IC50 ([8]; HIV-1 96USHIPS7 (subtype /B, R5) in PBMCs): 0.00065 µM
- IC50 ([8]; HIV-1 BR/92/021 (subtype B/B, R5) in PBMCs): 0.047 µM
- IC50 ([8]; HIV-1 BR/93/017 (subtype B/B, R5) in PBMCs): 0.00058 µM
- IC50 ([8]; HIV-1 BR/93/020 (subtype F/F, R5/X4) in PBMCs): 0.00032 µM
- IC50 ([8]; HIV-1 BR/93/022 (subtype /B, R5) in PBMCs): 0.00062 µM
- IC50 ([8]; HIV-1 CMU 02 (subtype /EA, X4) in PBMCs): 0.00182 µM
- IC50 ([8]; HIV-1 JV 1083 (subtype /G, R5) in PBMCs): 0.00065 µM
- IC50 ([8]; HIV-1 RW/92/016 (subtype A/A, R5) in PBMCs): 0.00061 µM
- IC50 ([8]; HIV-1 UG/92/046 (subtype D/D, X4) in PBMCs): 0.00119 µM
- TI (TC50/IC50) ([9]; HIV-1 ADA in macrophages): >2793.3
- TI (TC50/IC50) ([9]; HIV-1 Ba-L in macrophages): >4717.0
- IC50 ([10]; Human immunodeficiency virus 1, BAL, Macrophage): 0.00212 µM
- IC50 ([10]; Human immunodeficiency virus 1, Macrophage): 0.00358 µM

SMILES: C[C@H](Cn1cnc2c(N)ncnc21)OCP(=O)(O)O [TFV, Tenofovir]
- Fold-increase (EC50 fold increase above reference clone NL4-3) ([11]; RT mutation 2-5 TAMs, K65 and/or Q151, N=4, averaged): 8.5
- Fold-increase (EC50 fold increase above reference clone NL4-3) ([11]; RT mutation 2-5 TAMs, N=16, averaged): 3.5
- Fold-increase (EC50 fold increase above reference clone NL4-3) ([11]; RT mutation 2-5 TAMs, T69ins, N=4, averaged): 12.2
- Fold-increase (EC50 fold increase above reference clone NL4-3) ([11]; RT mutation 6 TAMS, M184, N=7, averaged): 1.6
- Fold-increase (EC50 fold increase above reference clone NL4-3) ([11]; RT mutation 6 TAMs, N=5, averaged): 5.0
- Fold-increase (EC50 fold increase above reference clone NL4-3) ([11]; RT mutation K65 and/or Q151, M184, N=12, averaged): 2.2
- Fold-increase (EC50 fold increase above reference clone NL4-3) ([11]; RT mutation K65 and/or Q151, N=7, averaged): 4.0
- Fold-increase (EC50 fold increase above reference clone NL4-3) ([11]; RT mutation M184, N=12, averaged): 0.6
- Fold-increase (EC50 fold increase above reference clone NL4-3) ([11]; Wild-type clones, N=8, averaged): 0.8
